Source: PubChem BioAssay (NCI)
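These data come from cells grown in 96-well plates and exposed to compound for 48 hours at five concentrations. GI50 marks 50% less growth. TGI denotes the concentration required for complete inhibition of growth.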

Legend:
Assay in all cases: inhibition of tumour cell growth, NCI panel, 48 h
[1] = system: 786-0 renal
[2] = system: A498 renal
[3] = system: A549 NSCLC
[4] = system: ACHN renal
[5] = system: BT-549 breast
[6] = system: CAKI-1 renal
[7] = system: COLO 205 colon
[8] = system: DU-145 prostate
[9] = system: EKVX NSCLC
[10] = system: HCC-2998 colon
[11] = system: HCT-116 colon
[12] = system: HCT-15 colon
[13] = system: HL-60(TB) leukemia
[14] = system: HOP-62 NSCLC
[15] = system: HOP-92 NSCLC
[16] = system: HS 578T breast
[17] = system: HT29 colon
[18] = system: IGROV1 ovarian
[19] = system: K-562 leukemia
[20] = system: KM12 colon
[21] = system: LOX IMVI melanoma
[22] = system: M14 melanoma
[23] = system: MALME-3M melanoma
[24] = system: MCF7 breast
[25] = system: MDA-MB-231 breast
[26] = system: MDA-MB-435
[27] = system: MOLT-4 leukemia
[28] = system: NCI-H226 lung
[29] = system: NCI-H460 lung
[30] = system: NCI-H522 lung
[31] = system: NCI/ADR-RES ovarian
[32] = system: OVCAR-3 ovarian
[33] = system: OVCAR-4 ovarian
[34] = system: OVCAR-5 ovarian
[35] = system: OVCAR-8 ovarian
[36] = system: PC-3 prostate
[37] = system: RPMI-8226 leukemia
[38] = system: RXF 393 renal
[39] = system: SF-268 CNS
[40] = system: SF-295 CNS
[41] = system: SF-539 CNS
[42] = system: SK-MEL-2 melanoma
[43] = system: SK-MEL-28 melanoma
[44] = system: SK-MEL-5 melanoma
[45] = system: SK-OV-3 ovarian
[46] = system: SN12C renal
[47] = system: SNB-19 CNS
[48] = system: SNB-75 CNS
[49] = system: SR leukemia
[50] = system: SW-620 colon
[51] = system: T-47D breast
[52] = system: TK-10 renal
[53] = system: U251 CNS
[54] = system: UACC-257 melanoma
[55] = system: UACC-62 melanoma
[56] = system: UO-31 renal
[57] = system: CCRF-CEM leukemia

SMILES: N/C(=N\c1nc2c(Cl)cc(Cl)cc2s1)C(Cl)(Cl)Cl
- GI50 [1]: > 100 µM
- TGI [1]: > 100 µM
- GI50 [2]: 15.3 µM
- TGI [2]: 29.4 µM
- GI50 [3]: 5.65 µM
- TGI [3]: 19.4 µM
- GI50 [4]: 3.59 µM
- TGI [4]: 22.2 µM
- GI50 [5]: 85.5 µM
- TGI [5]: > 100 µM
- GI50 [6]: 9.28 µM
- TGI [6]: > 100 µM
- GI50 [7]: 3.46 µM
- TGI [7]: 16.2 µM
- GI50 [8]: 3.11 µM
- TGI [8]: 15.8 µM
- GI50 [9]: 6.01 µM
- TGI [9]: 26.6 µM
- GI50 [10]: 6.11 µM
- TGI [10]: 23.6 µM
- GI50 [11]: 28.1 µM
- TGI [11]: > 100 µM
- GI50 [12]: 53.2 µM
- TGI [12]: > 100 µM
- GI50 [13]: 4.91 µM
- TGI [13]: > 100 µM
- GI50 [14]: 5.62 µM
- TGI [14]: 24.6 µM
- GI50 [15]: 2.89 µM
- TGI [15]: 25.8 µM
- GI50 [16]: 17.9 µM
- TGI [16]: > 100 µM
- GI50 [17]: 5.21 µM
- TGI [17]: 29.7 µM
- GI50 [18]: 55.8 µM
- TGI [18]: > 100 µM
- GI50 [19]: 55.3 µM
- TGI [19]: > 100 µM
- GI50 [20]: 5.8 µM
- TGI [20]: 71.8 µM
- GI50 [21]: 3.3 µM
- TGI [21]: 26.3 µM
- GI50 [22]: > 100 µM
- TGI [22]: > 100 µM
- GI50 [23]: > 100 µM
- TGI [23]: > 100 µM
- GI50 [24]: 3.02 µM
- TGI [24]: > 100 µM
- GI50 [25]: 38.3 µM
- TGI [25]: > 100 µM
- GI50 [26]: 61.3 µM
- TGI [26]: > 100 µM
- GI50 [27]: 34.6 µM
- TGI [27]: > 100 µM
- GI50 [28]: > 100 µM
- TGI [28]: > 100 µM
- GI50 [29]: 3.63 µM
- TGI [29]: 18.2 µM
- GI50 [30]: > 100 µM
- TGI [30]: > 100 µM
- GI50 [31]: 88.6 µM
- TGI [31]: > 100 µM
- GI50 [32]: 5.57 µM
- TGI [32]: 35.4 µM
- GI50 [33]: 41 µM
- TGI [33]: > 100 µM
- GI50 [34]: 45.2 µM
- TGI [34]: > 100 µM
- GI50 [35]: > 100 µM
- TGI [35]: > 100 µM
- GI50 [36]: 12.9 µM
- TGI [36]: 75.8 µM
- GI50 [37]: 17 µM
- TGI [37]: > 100 µM
- GI50 [38]: 12.5 µM
- TGI [38]: > 100 µM
- GI50 [39]: 51.5 µM
- TGI [39]: > 100 µM
- GI50 [40]: 11.5 µM
- TGI [40]: > 100 µM
- GI50 [41]: 17.2 µM
- TGI [41]: > 100 µM
- GI50 [42]: > 100 µM
- TGI [42]: > 100 µM
- GI50 [43]: 29.2 µM
- TGI [43]: > 100 µM
- GI50 [44]: > 100 µM
- TGI [44]: > 100 µM
- GI50 [45]: 35.4 µM
- TGI [45]: > 100 µM
- GI50 [46]: > 100 µM
- TGI [46]: > 100 µM
- GI50 [47]: 19.4 µM
- TGI [47]: > 100 µM
- GI50 [48]: > 100 µM
- TGI [48]: > 100 µM
- GI50 [49]: 77.4 µM
- TGI [49]: > 100 µM
- GI50 [50]: 48 µM
- TGI [50]: > 100 µM
- GI50 [51]: 5.4 µM
- TGI [51]: > 100 µM
- GI50 [52]: 31.7 µM
- TGI [52]: > 100 µM
- GI50 [53]: 6.63 µM
- TGI [53]: 96.6 µM
- GI50 [54]: 22.4 µM
- TGI [54]: > 100 µM
- GI50 [55]: 26.7 µM
- TGI [55]: > 100 µM
- GI50 [56]: 25.2 µM
- TGI [56]: > 100 µM

SMILES: O=C1[C@H]2Cc3c([nH]c4ccccc34)[C@@H](c3ccc(Br)cc3)N2C(=O)CN1C1CCN(CC2CCCCC2)CC1
- GI50 [1]: 15.6 µM
- TGI [1]: 29.4 µM
- GI50 [2]: 13.7 µM
- TGI [2]: 26.9 µM
- GI50 [3]: 18.3 µM
- TGI [3]: 39.9 µM
- GI50 [4]: 15.3 µM
- TGI [4]: 28.7 µM
- GI50 [5]: 15.5 µM
- TGI [5]: 29.6 µM
- GI50 [6]: 14.6 µM
- TGI [6]: 28.2 µM
- GI50 [57]: 24.1 µM
- TGI [57]: 56.5 µM
- GI50 [7]: 14.3 µM
- TGI [7]: 30.2 µM
- GI50 [8]: 17.6 µM
- TGI [8]: 33.6 µM
- GI50 [9]: 13.8 µM
- TGI [9]: 27.4 µM
- GI50 [10]: 14.4 µM
- TGI [10]: 28 µM
- GI50 [11]: 13.6 µM
- TGI [11]: 27.2 µM
- GI50 [12]: 16 µM
- TGI [12]: 30.8 µM
- GI50 [13]: 16.4 µM
- TGI [13]: 41.8 µM
- GI50 [14]: 16.2 µM
- TGI [14]: 34.6 µM
- GI50 [15]: 6.7 µM
- TGI [15]: 21.1 µM
- GI50 [16]: 18.4 µM
- TGI [16]: 45.1 µM
- GI50 [17]: 14.8 µM
- TGI [17]: 35 µM
- GI50 [18]: 13.4 µM
- TGI [18]: 26.7 µM
- GI50 [19]: 16.5 µM
- TGI [19]: 53.1 µM
- GI50 [20]: 17 µM
- TGI [20]: 34 µM
- GI50 [21]: 18.6 µM
- TGI [21]: 34.3 µM
- GI50 [22]: 16.9 µM
- TGI [22]: 32.9 µM
- GI50 [23]: 13.8 µM
- TGI [23]: 28.3 µM
- GI50 [24]: 10.1 µM
- TGI [24]: 22.3 µM
- GI50 [25]: 15.2 µM
- TGI [25]: 30.1 µM
- GI50 [26]: 16.9 µM
- TGI [26]: 31.6 µM
- GI50 [27]: 20.4 µM
- TGI [27]: 81.6 µM
- GI50 [28]: 30.4 µM
- TGI [28]: > 100 µM
- GI50 [29]: 18.8 µM
- TGI [29]: 36.1 µM
- GI50 [30]: 17.9 µM
- TGI [30]: 39.9 µM
- GI50 [31]: 16.7 µM
- TGI [31]: 34.1 µM
- GI50 [32]: 15.3 µM
- TGI [32]: 29.5 µM
- GI50 [33]: 17.9 µM
- TGI [33]: 37.1 µM
- GI50 [34]: 15.1 µM
- TGI [34]: 28.8 µM
- GI50 [35]: 22.5 µM
- TGI [35]: 55.5 µM
- GI50 [36]: 12.4 µM
- TGI [36]: 25.5 µM
- GI50 [37]: 23.4 µM
- TGI [37]: 53.4 µM
- GI50 [38]: 11.9 µM
- TGI [38]: 24.2 µM
- GI50 [39]: 15.3 µM
- TGI [39]: 31.9 µM
- GI50 [40]: 17.5 µM
- TGI [40]: 31.9 µM
- GI50 [41]: 15.5 µM
- TGI [41]: 29.5 µM
- GI50 [42]: 23 µM
- TGI [42]: 58.7 µM
- GI50 [43]: 16.4 µM
- TGI [43]: 30.6 µM
- GI50 [44]: 16.1 µM
- TGI [44]: 29.9 µM
- GI50 [45]: 21.9 µM
- TGI [45]: 59.3 µM
- GI50 [46]: 15.8 µM
- TGI [46]: 30.9 µM
- GI50 [47]: 15.9 µM
- TGI [47]: 31.5 µM
- GI50 [48]: 87.1 µM
- TGI [48]: > 100 µM
- GI50 [49]: 16 µM
- TGI [49]: 46.1 µM
- GI50 [50]: 16.5 µM
- TGI [50]: 31.8 µM
- GI50 [51]: 13.9 µM
- TGI [51]: > 100 µM
- GI50 [52]: 17.8 µM
- TGI [52]: 35.1 µM
- GI50 [53]: 16.4 µM
- TGI [53]: 34 µM
- GI50 [54]: 20.2 µM
- TGI [54]: 42.7 µM
- GI50 [55]: 16 µM
- TGI [55]: 29.9 µM
- GI50 [56]: 11.7 µM
- TGI [56]: 24.2 µM
